Assay results: patent US11058702B2 (EMEK, Inc., priority 2014, dated 2021)
Values joined by “and” are separate entries in the source; they are usually repeats but may differ in a detail not shown here. Equal entries are not always repeated. Where two headings read alike, the source gives them in different places.

Tests used:
[1] = set-up: species or system ferret; conditions: in vivo
[2] = test system: locally advanced rectal cancer; experiment: Predicted clinical use of po IPdR + RT + capecitabine; type: in vivo, human; conditions: po IPdR added to RT+capecitabine
From the text: The biochemical and cellular interactions of RT+FP are felt to result from inhibition of the enzyme, thymidylate synthetase (TS) by the FP monophosphate metabolite, FdUMP, leading to decreased (or unbalanced) nucleotide pools necessary for DNA synthesis and decreased DNA repair following RT damage. […] The clinical and PK data from this ongoing clinical trial will be used in the design of a future Phase II clinical trial of IPdR+RT+twice daily po capecitabine as pre-operative therapy in patients with locally advanced rectal cancer.
The patient will continue to take oral IPdR in addition to capecitabine therapy throughout the course of RT, and will discontinue IPdR and capecitabine following completion of RT.

chordoma = experiment: Predicted clinical use of IPdR + proton therapy; type: in vivo, human; conditions: IPdR added to PT
From the text: The patient will continue to take oral IPdR throughout the course of PT, and will discontinue IPdR following completion of PT.
PT as a modality of RT is gaining popularity as it allows delivery of higher doses of IR with equivalent or less toxicity (i.e. the TI of PT is higher than that of conventional RT). The use of PT, however, is limited by availability (limited number of PT centers), feasibility (logistics involved in the administration of PT formidable), and the cost (cost of PT is, on average, 3-5 times the cost of conventional RT).

[3] = Plasma PK of once daily po IPdR x 28 days; type: in vivo, Fischer-344 rats
From the text: Cancer research. 1994; 54(10):2695-700. […] Plasma samples are processed by solvent deproteinization.
This study was requested by the FDA as part of the pre-clinical testing of po IPdR prior to IND submission. […] Thus, the PK profile for po IPdR appears quite similar in mice and rats.

[4] = in vivo
From the text: It has been previously reported that kinetically distinct forms of aldehyde oxidase exist in male and female rodent liver, and that these distinct forms occur as a result of differences in redox state and not in cDNA sequencing. […] A high degree of homology exists between mouse and human aldehyde oxidase.

[5] = test system: HT-29, HCT 116, U251 and U87 xenografts; experiment: Tumor regrowth assay of response to RT; type: in vivo, athymic mice
[6] = Plasma pharmacokinetics of po IPdR in athymic mice
From the text: These nucleoside analogs are extracted from the plasma by the addition of 5-chloro-2′-deoxyuridine (internal standard) and acetonitrile. The samples are redissolved in deionized water for HPLC analysis using a Spectra-Physics P2000 pump and UV2000 detection (Spectra-Physics Analytical, Fremont, Calif.) on a 3.9×300 mm μ Bondapak C18 reverse phase column (Waters Associates, Milford, Mass.). […] Plasma samples are processed by solvent deproteinization. […] All solvents should be high-pressure liquid chromatography (HPLC) grade.

high-grade gliomas = experiment: Predicted clinical use of IPdR + RT (+TMZ); type: in vivo, human
From the text: Dysregulation of other DNA repair pathways, including both MMR and BER, are reported to contribute to the aggressive biology and poor prognosis of high-grade gliomas. In a recent comprehensive analysis of the messenger ribonucleic acid (mRNA) expression levels in 157 DNA repair genes in two large, publically available, gene expression data sets from 699 GBM tumors, the expression levels of a key BER glycolylase (APE1) and a key MMR protein (PMS2) were reported to be independent prognostic biomarkers of survival following treatment with RT alone or TMZ alone. Based on this novel DNA repair prognostic index for GBM and other high-grade gliomas, future clinical studies of the use of RT+IPdR would stratify for specific molecular subsets of high-grade gliomas with intact MGMT (i.e. unmethylated promoter) and deficient MMR. […] In both clinical scenarios, the enhanced IPdR-mediated radiosensitization would be predicted to improve the duration of survival by 50%, as reflected in the early trials of ci IUdR+RT (Table 1).
The patient will initially undergo maximal surgical resection, with a goal of <5% residual disease (the infiltrative nature of high-grade gliomas dictates this goal). […] The patient will continue TMZ and IPdR throughout the course of RT.

IPdR aldehyde oxidase = conditions: intestine, bone marrow, lung and kidney; cited from earlier work
[7] = cited from earlier work
[8] = test system: locally advanced pancreas cancer; experiment: Predicted clinical use of IPdR + gemcitabine + RT; type: in vivo, human; conditions: from 40%
From the text: The patient will continue to take oral IPdR in addition to receiving gemcitabine therapy throughout the course of RT, and will discontinue IPdR following completion of RT.

[9] = test system: herpes simplex virus-infected HeLa cells; conditions: cited from earlier work
[10] = test system: cellular DNA of HCT-116, HT-29, U251 xenografts, bone marrow, intestine, liver
Method: After fixing the single-cell suspension with 70% ethanol in normal saline, the DNA is partially denatured with 2N HCl and subsequently reacted with a mouse anti-IUdR monoclonal antibody (Becton-Dickinson) followed by incubation with a fluorescein isothiocyanate-labeled goat anti-mouse secondary antibody. Finally, the nuclei are incubated with propidium iodide (PI) to label the DNA. Flow cytometric analysis is performed using two color analysis with emissions of fluorescein isothiocyanate detected with 530 nm short pass filters and PI detected with 630 nm long pass filters. In various embodiments, a minimum of 10,000 events is analyzed per sample, and the percentage of labeled cells is calculated.
Subsequently, single cells are disrupted and the DNA is enzymatically digested into free nucleosides. DNA extraction and digestion are performed by incubation with 10% trichloroacetic acid, followed by RNA digestion in 0.25M NaOH and enzymatic digestion with DNA-ase, alkaline phosphate and phosphodiesterase in MgCl and potassium phosphate buffer. A Waters 600E solvent delivery system on a 3.9×300 mm μ Bondapak reverse-phase column (Waters Corp, Milford, Mass.) is used. The mobile phase consists of 100 mm of sodium acetate buffer (pH 5.45) plus 7% (v/v) acetonitrile. Peak identification and quantitation of IUdR and thymidine (TdR) are performed against authentic nucleoside standards. The % IUdR-DNA replacement (or % TdR replacement) is calculated according to:

in vivo = conditions: daily po bolus (gastric gavage) for 6 days
Method: No further dose escalations were used because of the increased risk of pulmonary aspiration with larger drug volumes (≥2000 mg/kg/d).

human cancer cell models = experiment: IUdR+MX in experimental human cancer cell models; type: cell-based
From the text: BER processing typically leads to chemotherapy drug and IR resistance. Consequently, the recognition and detection of BER-deficient cancers and/or the development of chemical inhibitors of specific BER enzymes can reverse alkylating and anti-metabolite drug resistance, as well as IR resistance. Based in part on the pre-clinical results from Dr. Kinsella's lab, methoxyamine (MX), a chemical inhibitor of BER, is currently undergoing clinical testing as TRC-102 in combination with chemotherapy drugs including temozolomide. MX is a small organic amine derivative of alkoxyamine that blocks the short patch BER pathway by covalently binding the AP site formed by a specific glycosylase, rendering it refractory to the catalytic activity of AP endonuclease 1. A MX-bound AP site is repaired much more slowly (>300×) than a normal AP site, and enhances cell death.

AP site = conditions: cited from earlier work
[11] = human colorectal and glioblastoma xenografts
[12] = IPdR+TMZ+RT, MGMT promoter methylated GBM

O=c1ncc(I)cn1[C@H]1C[C@H](O)[C@@H](CO)O1 [IPdR]
LD50 (IPdR, one dose/day×14-28 days): never reached | TI of IPdR in animals (LD50/ED50): ∞ | deaths (very high doses, one dose/day×14-28 days): no deaths were seen | blood cell counts, liver function tests, kidney function tests, urinalysis [1]: No significant abnormalities | gross findings at complete necropsy [1]: no anatomic lesions | hematologic, biochemical, or histopathologic changes [1]: no significant hematologic, | histology of CNS tissues [1]: No histological changes | kidney and uterus weights [1]: decreased | liver weights [1]: increased | microscopic changes in liver [1]: minimal to moderate cytoplasmic vacuolation of hepatocytes | weight loss at highest dose [1]: species. Noted mild weight | further improvement in DFS [2]: 10-15% | postulated pCR rate ([2]; from 10-15%): 30-35% | predicted increase of the TI of the IR (chordoma): up to 1.5 × | Cmax values for IPdR with increasing dose ([3]; 0.2 or 1.0 gm/kg/day): less than dose proportional | IUdR AUC values vs dose ([3]; after po IPdR): proportional with increasing dose | time of peak IUdR concentrations ([3]; after po IPdR dosing): ≤ 15 min | mean half-life for IUdR ([3]; females, after po IPdR): 8 h | mean elimination half-life for IPdR ([3]; highest dose): ~5 h | mean half-life for IUdR ([3]; males, after po IPdR): 6 h | absorption of po IPdR ([3]; rat, in vivo, po): not dependent on sex, dose, or single (Day 1) versus multiple daily dosings (Day 28) | time of maximal concentrations of IPdR ([3]; single doses of 1.0 gm/kg/day): 90 min | AUC values for IPdR after 28 days ([3]; vs Day 1): less than those observed after Day 1 | clearance from plasma [4]: rapidly cleared from plasma in a bi-exponential fashion | enhancement of response to RT with po IPdR [5, 11]: IUdR. 1.3-1.5 fold | calculated SER for po IPdR ([5]; mouse, in vivo, po): 1.3-1.5 | peak plasma levels of IUdR ([6]; bolus 250 mg/kg IPdR po): up to 45 μM | time to peak plasma levels of IUdR ([6]; bolus 250 mg/kg IPdR po): ≤ 15 min | plasma levels of IPdR at 45 and 90 min ([6]; po 1500 mg/kg): remain elevated | time to peak plasma level of IPdR ([6]; po IPdR bolus): 10 to 20 min | time to peak plasma level of IUdR ([6]; po IPdR bolus): 10 to 20 min | time to peak plasma level of metabolite IP ([6]; po bolus of IPdR): 45 to 90 min | time to peak plasma level of metabolite IU ([6]; po bolus of IPdR): 45 to 90 min | predicted prolongation of survival (high-grade gliomas; [12]): up to 70% | predicted survival (high-grade gliomas; [12]): 24 months | predicted improvement of duration of survival (high-grade gliomas; RT+IPdR or RT+IPdR+TMZ): 50% | activity of IPdR aldehyde oxidase in other normal tissues vs liver (IPdR aldehyde oxidase): 10 fold less | plasma concentrations of IUdR vs oral dose of IPdR ([7]; 150 mg to 2400 mg): generally increased | peak IUdR plasma levels ([7]; IPdR 2400 mg po, 6 patients): 4.0 ± 1.02 µmol/L | IUdR half-life ([7]; IPdR 2400 mg po): 1.5 h | time IUdR plasma levels remained above 1 umol/L ([7]; IPdR 2400 mg po): 3 to 4 h | time to peak IUdR plasma levels ([7]; IPdR 2400 mg po): 1.67 ± 1.21 h | toxicities ([7]; po IPdR 150 mg-2400 mg): No toxicities. | IUdR levels decreasing over 8 hours to ([7]; po IPdR dose of 2400 mg): 1 µM | duration of peak plasma levels of IUdR ([7]; po IPdR dose of 2400 mg): 4 h | peak plasma levels of IUdR ([7]; po IPdR dose of 2400 mg): > 4 µM | transient plasma levels of IUdR ([7]; po IPdR): up to 4 μMol/L | adverse events (NCI Common Toxicity Criteria version 4.0) ([7]; single po dose 150-2400 mg, 10 patients): no drug-related adverse events | expected percentage of patients achieving R0-resection [8]: > 60% | toxicity to uninfected cells or mice [9]: without toxicity | antiviral activity ([9]; in vitro and in vivo following po administration): significant activity | radiosensitization compared to continuous infusion IUdR ([10]; % IUdR-DNA incorporation as surrogate): more effective radiosensitizer | increase in % IUdR-DNA cellular incorporation in tumor vs MTD of po IUdR ([10]; IPdR 1 g/kg/d for 6 days, HCT-116): 2-3 fold | IUdR-DNA incorporation in tumors, po IPdR vs ci IUdR [10, 11]: Increased IUdR-DNA | increase in % IUdR-DNA tumor cell incorporation, po IPdR compared to ci IUdR ([10]; human tumor xenografts, MTD schedules of IUdR): 2-3 fold and 2 fold | IUdR-DNA incorporation in normal tissues, po IPdR vs ci IUdR ([10]; mouse, in vivo, po): decreased in normal | decrease in % IUdR-DNA incorporation in bone marrow and intestine, po IPdR compared to ci IUdR ([10]; mouse, in vivo, po): 2 fold and 2-3 fold | less % IUdR-DNA incorporation in bone marrow and intestine, po IPdR vs po IUdR ([10]; mouse, in vivo, po): ≥ 2 fold | % IUdR-DNA incorporation, liver tumor metastases vs sc tumor ([10]; po IPdR, HCT-116): no differential effect | normal tissue systemic toxicities compared to continuous infusion IUdR ([10]; weight loss, myelosuppression): less normal tissue systemic toxicities | tolerated dose (in vivo): up to 1 g/kg/d

CON [MX, methoxyamine]
effect of IUdR+MX on % IUdR-DNA incorporation and radiosensitization (human cancer cell models): enhances | slower repair of MX-bound AP site than normal AP site (AP site): > 300 ×
